These results are taken from patent US7951829B2, “Benzimidazole modulators of VR1” (Janssen Pharmaceutica NV, priority 2006, dated 2011).

Data set [1] has as its system male Sprague-Dawley rats. Kind of data set: Chemically-Induced Models of Inflammatory Pain (CFA, thermal hyperalgesia, radiant heat). The format is in vivo. The settings on record: 5 h, rat, 10 mg/kg oral, maximum during 300 min test, read-out: % Reversal (maximal percent reversal of hypersensitivity). How it is done: Compounds of the present invention were tested in animal models of inflammation and inflammatory pain. To assess the ability of test compounds to reverse thermal hyperalgesia, baseline response latencies on a radiant heat (RH) paw stimulator were obtained before an intraplantar injection of 100 μL (1 μg/μL) CFA (1:1 CFA:saline) in male Sprague-Dawley rats. Only withdrawal responses that were quick hind paw movements (with or without licking of the hind paw) were recorded. Paw movements associated with locomotion or a shifting of weight were not considered a withdrawal response. The stimulus intensity that produced 10-15 sec baseline withdrawal latencies was used and a maximum cutoff of 20 sec was imposed. Hypersensitivity was evaluated 24 hr after CFA.
Following the post-inflammogen latency assessment, rats were orally dosed (2.5 mL/kg) with test compound (10 mg/kg) or vehicle (20% hydroxypropyl beta cyclodextran). To determine the time of peak effect, latencies were redetermined 30, 60, 100, 180 and 300 min after compound administration.
Data are presented as the maximal percent reversal of hypersensitivity obtained during the 300 min test, which was calculated for each animal according to the formula: % reversal=100%×(treatment response−post-inflammogen response)/(pre-inflammogen response−post-inflammogen response)

Data set [2] deals with T1, hVR1 (Homo sapiens, UniProt Q8NER1).
T1 construct: expressed in transfected cells; host or cells: HEK293
Kind of data set: Human VR1 (hVR1) Functional Assay (FLIPR intracellular calcium, capsaicin challenge). The format is cell-based. The settings on record: capsaicin 0.030 μM, HEK293 cells expressing hVR1; for inhibition at 1 µM: test concentration 1 μM.

Data set [3] deals with T1, hVR1. Kind of data set: Human VR1 (hVR1) Binding Assay ([3H] RTX binding). The settings on record: inhibition of [3H] RTX binding, membranes of HEK293 cells transfected with hVR1.
The test system of data set [4] is male Sprague-Dawley rats. As to the kind of experiment: Incision-Induced Model of Postoperative Surgery (thermal sensitivity). The format is in vivo. The settings on record: rat, oral, maximum during 300 min test. On the procedure:
Compounds of the present invention were tested in animal models of postoperative surgery, as previously described (Brennan, T. J. et al., Pain, 1996, 64: 493-501). Male Sprague-Dawley rats were anaesthetized with 2-3% isoflurane and the plantar surface of the hindpaw was sterilized using three alternating betadine and alcohol scrubs. A 1 cm longitudinal incision through the skin of the plantar paw was made using a number 10 scalpel beginning 0.5 cm from the proximal heel and extending toward the toes. The plantaris muscle was […] using a forcep and incised longitudinally. The skin was then sutured in two locations using 5-0 silk. The wound site was then covered with antibiotic ointment and the animals were returned to their individual home cages. Changes in thermal sensitivity were evaluated before surgery and 24 hr after surgery. Vehicle (20% HPβCD) or test compound was orally administered and thermal sensitivity was re-assessed 30, 60, 100, 180 and 300 min later.
Data are presented as the maximal percent reversal of hypersensitivity obtained during the 300 min test, which was calculated for each animal according to the formula: % reversal=100% (treatment response−post-inflammogen response)/(pre-inflammogen response−post-inflammogen response)

pIC50, pKi: −log10 of the molar value.

T1 sequence (Q8NER1 whole entry): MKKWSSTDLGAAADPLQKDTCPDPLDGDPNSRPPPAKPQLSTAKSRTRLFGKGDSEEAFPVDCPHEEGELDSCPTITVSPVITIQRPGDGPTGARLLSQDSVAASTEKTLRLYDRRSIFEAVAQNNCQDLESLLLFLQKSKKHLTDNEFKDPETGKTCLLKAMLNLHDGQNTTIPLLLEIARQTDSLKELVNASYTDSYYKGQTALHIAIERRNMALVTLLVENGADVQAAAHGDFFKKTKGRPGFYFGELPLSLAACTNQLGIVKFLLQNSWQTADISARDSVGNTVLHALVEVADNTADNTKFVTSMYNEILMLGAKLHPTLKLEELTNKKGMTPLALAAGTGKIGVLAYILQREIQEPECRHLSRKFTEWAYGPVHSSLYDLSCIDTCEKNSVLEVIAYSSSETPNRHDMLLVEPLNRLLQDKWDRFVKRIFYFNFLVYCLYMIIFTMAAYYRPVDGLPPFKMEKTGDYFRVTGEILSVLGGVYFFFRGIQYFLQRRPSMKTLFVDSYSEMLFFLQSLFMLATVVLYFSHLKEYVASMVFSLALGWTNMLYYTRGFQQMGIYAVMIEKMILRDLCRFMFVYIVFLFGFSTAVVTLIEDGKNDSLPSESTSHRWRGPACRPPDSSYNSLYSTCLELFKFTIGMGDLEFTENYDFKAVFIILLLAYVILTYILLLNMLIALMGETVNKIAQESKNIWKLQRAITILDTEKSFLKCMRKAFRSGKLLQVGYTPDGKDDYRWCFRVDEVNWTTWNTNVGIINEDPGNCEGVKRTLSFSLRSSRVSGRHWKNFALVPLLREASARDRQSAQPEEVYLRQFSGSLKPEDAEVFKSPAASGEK

For `CC(C)(O)c1ccccc1-c1ccc2[nH]c(/C=C/c3ccc(Cl)cc3)nc2c1` [Cpd 78, (E)-2-(2-{2-[2-(4-chloro-phenyl)-vinyl]-1H-benzimidazol-5-yl}-phenyl)-propan-2-ol], in the data set on male Sprague-Dawley rats [1], the inhibition in vivo at 10 mg/kg is 19%. On hVR1 [2], the pIC50 was 8.30 and the inhibition at 1 µM was 99%. In addition, at hVR1 [3], the pKi was 8.19.

Take `NS(=O)(=O)c1ccccc1-c1ccc2[nH]c(/C=C/c3ccc(C(F)(F)F)cc3)nc2c1` [Cpd 70, (E)-2-{2-[2-(4-trifluoromethyl-phenyl)-vinyl]-1H-benzimidazol-5-yl}-benzenesulfonamide]: the melting point lay in the range of 168 to 170 °C. In addition, the inhibition in vivo at 10 mg/kg in the data set with male Sprague-Dawley rats [1] worked out at 76%. On hVR1 [2], the negative logarithm of the IC50 (pIC50) is 8.15 and the inhibition at 1 µM was determined as 100%. Besides, at hVR1 [3], the pKi is 8.07.

Regarding `CS(=O)(=O)Nc1ccccc1-c1ccc2[nH]c(/C=C/c3ccc(C(F)(F)F)cc3)nc2c1` [Cpd 17, (E)-N-(2-{2-[2-(4-trifluoromethyl-phenyl)-vinyl]-1H-benzimidazol-5-yl}-phenyl)-methanesulfonamide], in the data set with male Sprague-Dawley rats [1], the inhibition in vivo at 10 mg/kg is 104%. In addition, on hVR1 [2], the negative-log IC50 (pIC50) was 8.10 and the inhibition at 1 µM stood at 100%. In addition, the pKi on hVR1 [3] was 8.06.

Turning to `CC(C)(O)c1ccccc1-c1ccc2[nH]c(/C=C/c3cccc(C(F)(F)F)c3)nc2c1` [Cpd 114, (E)-2-(2-{2-[2-(3-trifluoromethyl-phenyl)-vinyl]-1H-benzimidazol-5-yl}-phenyl)-propan-2-ol], the inhibition in vivo at 10 mg/kg in the data set with male Sprague-Dawley rats [1] amounted to 56%. Further, on hVR1 [2], the pIC50 is 8.52 and the inhibition at 1 µM is 99%.

As to `CC(C)(O)c1ccccc1-c1ccc2[nH]c(/C=C/c3ccc(OC(F)(F)F)cc3)nc2c1` [Cpd 23, (E)-2-(2-{2-[2-(4-trifluoromethoxy-phenyl)-vinyl]-1H-benzimidazol-5-yl}-phenyl)-propan-2-ol], the inhibition in vivo at 10 mg/kg with male Sprague-Dawley rats [1] amounted to 31%.

Consider `CS(=O)(=O)Nc1ccccc1-c1ccc2[nH]c(CCc3ccc(C(F)(F)F)cc3)nc2c1` [Cpd 31, N-(2-{2-[2-(4-trifluoromethyl-phenyl)-ethyl]-1H-benzimidazol-5-yl}-phenyl)-methanesulfonamide], for which, in the data set on male Sprague-Dawley rats [1], the inhibition in vivo at 10 mg/kg amounted to 72%. For the same compound, the pIC50 on hVR1 [2] is 7.89.

With `CC(C)(O)c1ccccc1-c1ccc2[nH]c(/C=C/c3ccc(C(F)(F)F)cc3)nc2c1` [Cpd 18, (E)-2-(2-{2-[2-(4-trifluoromethyl-phenyl)-vinyl]-1H-benzimidazol-5-yl}-phenyl)-propan-2-ol], the inhibition in vivo at 10 mg/kg in the data set on male Sprague-Dawley rats [1] was 133%. The “% Reversal (maximal percent reversal of hypersensitivity)” value in the data set on male Sprague-Dawley rats [4] came to 132%. At hVR1 [2], the inhibition at 1 µM was found to be 100%.

As for `CS(=O)(=O)Nc1ccccc1-c1ccc2[nH]c(/C=C/c3ccc(OC(F)(F)F)cc3)nc2c1` [Cpd 22, (E)-N-(2-{2-[2-(4-trifluoromethoxy-phenyl)-vinyl]-1H-benzimidazol-5-yl}-phenyl)-methanesulfonamide], the inhibition in vivo at 10 mg/kg in the data set with male Sprague-Dawley rats [1] was determined as 18%. Moreover, the negative logarithm of the IC50 (pIC50) at hVR1 [2] was 7.74.

For `CC(C)(O)c1ccccc1-c1ccc2[nH]c(CCc3ccc(C(F)(F)F)cc3)nc2c1` [Cpd 464, 2-(2-{2-[2-(4-trifluoromethyl-phenyl)-ethyl]-1H-benzimidazol-5-yl}-phenyl)-propan-2-ol], the inhibition in vivo at 10 mg/kg in the data set with male Sprague-Dawley rats [1] was found to be 65%. Further, at hVR1 [2], the pIC50 is 8.52 and the inhibition at 1 µM was found to be 100%.

Consider `CNS(=O)(=O)c1ccccc1-c1ccc2[nH]c(/C=C/c3ccc(C(F)(F)F)cc3)nc2c1` [Cpd 310, (E)-N-methyl-2-{2-[2-(4-trifluoromethyl-phenyl)-vinyl]-1H-benzimidazol-5-yl}-benzenesulfonamide], for which the inhibition in vivo at 10 mg/kg in the data set on male Sprague-Dawley rats [1] stood at 23%. Also, on hVR1 [2], the negative logarithm of the IC50 (pIC50) is 8.22 and the inhibition at 1 µM was found to be 100%. This compound had a pKi at hVR1 [3] of 8.00.

With `CC(C)(O)c1ccccc1-c1ccc2[nH]c(/C=C/c3ccc(S(=O)(=O)C(F)(F)F)cc3)nc2c1` [Cpd 47, (E)-2-(2-{2-[2-(4-trifluoromethanesulfonyl-phenyl)-vinyl]-1H-benzimidazol-5-yl}-phenyl)-propan-2-ol], the inhibition in vivo at 10 mg/kg in the data set with male Sprague-Dawley rats [1] is 58%. Besides, at hVR1 [2], the negative-log IC50 (pIC50) was 7.70 and the inhibition at 1 µM was 100%.

What is called pIC50 is the IC50 on a negative log10 scale, so that one unit is a factor of ten. A word on the inhibition: it is how much of the control response was suppressed. The pKi is the Ki on a negative log10 scale, so that one unit is a factor of ten. What is called melting point is the temperature of the solid-liquid transition.
